Test results reported in the NIST ThermoML archive (doi:10.1016/j.jct.2014.12.006).
Numbers after ± are expanded uncertainties.

Test: mn = molality of the nth substance listed, in mol/kg
Conditions: 298.15 K, 102 kPa, Liquid, Vibrating tube method

Q: For CCCCCCCCCCCCn1cc[n+](C)c1.[Br-] [1-dodecyl-3-methylimidazolium bromide] + O, which mass density (m1 = 0.00525) is on record?
A: 997.226 ± 0.12 kg/m3

Q: And the mass density (m1 = 0.00574)?
A: 997.243 ± 0.12 kg/m3

Q: And the mass density (m1 = 0.00615)?
A: 997.258 ± 0.12 kg/m3

Q: What about the mass density (m1 = 0.007) of the same compound?
A: 997.288 ± 0.12 kg/m3

Q: And the mass density (m1 = 0.00733)?
A: 997.299 ± 0.12 kg/m3

Q: What about the mass density (m1 = 0.00816) of the same compound?
A: 997.329 ± 0.12 kg/m3

Q: And the mass density (m1 = 0.00869)?
A: 997.347 ± 0.12 kg/m3

Q: And the mass density (m1 = 0.0092)?
A: 997.365 ± 0.12 kg/m3

Q: And the mass density (m1 = 0.01006)?
A: 997.396 ± 0.12 kg/m3

Q: And the mass density (m1 = 0.01063)?
A: 997.412 ± 0.12 kg/m3

Q: What about the mass density (m1 = 0.01124) of the same compound?
A: 997.43 ± 0.12 kg/m3

Q: And the mass density (m1 = 0.01196)?
A: 997.451 ± 0.12 kg/m3

Q: And the mass density (m1 = 0.01274)?
A: 997.474 ± 0.12 kg/m3

Q: What about the mass density (m1 = 0.01356) of the same compound?
A: 997.498 ± 0.12 kg/m3

Q: What about the mass density (m1 = 0.01464) of the same compound?
A: 997.529 ± 0.12 kg/m3

Q: And the mass density (m1 = 0.01526)?
A: 997.545 ± 0.12 kg/m3

Q: And the mass density (m1 = 0.01629)?
A: 997.575 ± 0.12 kg/m3

Q: And the mass density (m1 = 0.01707)?
A: 997.595 ± 0.12 kg/m3

Q: What does the source list for CCCCCCCCCCCC[N+](C)(C)CC[N+](C)(C)CCCCCCCCCCCC.[Br-].[Br-] [1,2-bis(dimethyldodecylammonium)ethane dibromide] + O?
A: mass density (m1 = 0.0005): 997.078 ± 0.12 kg/m3; mass density (m1 = 0.00056): 997.083 ± 0.12 kg/m3; mass density (m1 = 0.00065): 997.091 ± 0.12 kg/m3; mass density (m1 = 0.0007): 997.095 ± 0.12 kg/m3; mass density (m1 = 0.00079): 997.103 ± 0.12 kg/m3; mass density (m1 = 0.00089): 997.112 ± 0.12 kg/m3; mass density (m1 = 0.00095): 997.117 ± 0.12 kg/m3; mass density (m1 = 0.00104): 997.124 ± 0.12 kg/m3; mass density (m1 = 0.00107): 997.126 ± 0.12 kg/m3; mass density (m1 = 0.00119): 997.136 ± 0.12 kg/m3; mass density (m1 = 0.0013): 997.144 ± 0.12 kg/m3; mass density (m1 = 0.00142): 997.153 ± 0.12 kg/m3; mass density (m1 = 0.00168): 997.172 ± 0.12 kg/m3
